In patent US9120774B2 (University of Kansas, priority 2009, dated 2015):
Like-named read-outs stand apart in the source and are kept apart here. One block for each compound: values may come before it.

Assays:
Format in all cases: cell-based
[1] = system: MCF-7 (estrogen receptor positive breast cancer cells); test: Anti-proliferation activity against MCF-7 cells (MTS/PMS); conditions: for IC50: Homo sapiens, MCF7, read-out: IC50 MCF-7
Method in brief: (§1)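 Cells seeded at 2000/well, attached overnight, then exposed to compound at varying concentrations (1% DMSO final) for 72 hours at 37° C. Viable cells read by MTS/PMS, normalised to 1% DMSO as 100% proliferation. IC50 from separate triplicate experiments.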

[2] = system: PC-3 (androgen independent prostate cancer cells); test: Anti-proliferation activity against PC-3 cells; conditions: for IC50: Homo sapiens, PC-3, read-out: IC50 PC-3
Method in brief: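 Antiproliferative activity was tested in PC-3 androgen-independent prostate cancer cells. Cells grown at 37° C. with 5% CO2 in Advanced DMEM/F12 (1:1) containing non-essential amino acids, 2 mM L-glutamine, streptomycin, penicillin and 10% FBS were plated at 2000/well in 96-well plates. Proliferation was normalized to 1% DMSO controls, and IC50 values from triplicate experiments were fitted in GraphPad Prism.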

[3] = system: SkBr3 (Her2 overexpressing breast cancer cells); test: Anti-proliferation activity against SkBr3 cells (MTS/PMS); conditions: for IC50: Homo sapiens, SK-BR-3
Method in brief: as §1

[4] = system: cancer cell lines; test: Anti-proliferative activity, statements covering several cancer cell lines; conditions: for fold reduced activity versus the compound with a hydrogen at the 5-position: both breast cancer cell lines
Procedure: Upon completion of synthesis of library of compounds in Examples 23 and 24, the compounds were evaluated for anti-proliferative activity against SkBr3 (Her2 overexpressing breast cancer cells), MCF-7 (estrogen receptor positive breast cancer cells), HCT-116 (colon cancer cells characterized by wild-type p53), PL45 (pancreatic cancer cells), LNCaP (androgen sensitive prostate cancer cells) and PC-3 (androgen independent prostate cancer cells) cell lines. […] The monosubstituted benzamide variants improved activity.
(§2) Cells were maintained in a 1:1 mixture of Advanced DMEM/F12 (Gibco) supplemented with non-essential amino acids, L-glutamine (2 mM), streptomycin (500 ng/mL), penicillin (100 units/mL), and 10% FBS. Cells were grown to confluence in a humidified atmosphere (37° C., 5% CO2), seeded (2000/well, 100 μl) in 96-well plates, and allowed to attach overnight. Compound or GDA at varying concentrations in DMSO (1% DMSO final concentration) was added, and cells were returned to the incubator for 72 hours. At 72 hours, the number of viable cells was determined using an MTS/PMS cell proliferation kit (Promega) per the manufacturer's instructions. Cells incubated in 1% DMSO were used at 100% proliferation, and values were adjusted accordingly. IC50 values were calculated from separate experiments performed in triplicate using GraphPad Prism.
as §2, with “μg/mL),” for “ng/mL),”, “μL)” for “μl)”

[5] = system: LNCaP (androgen sensitive prostate cancer cells); test: Anti-proliferation activity against LNCaP cells; conditions: Homo sapiens, LNCaP
Method in brief: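 Cells seeded at 2000/well in Advanced DMEM/F12 with 10% FBS and attached overnight, then given compound in 1% DMSO final for 72 h at 37 °C, 5% CO2. Viable cells by MTS/PMS read-out, normalised to 1% DMSO as 100% proliferation. IC50 from separate triplicate experiments.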

[6] = system: PL45 (pancreatic cancer cells); test: Anti-proliferation activity against PL45 cells
[7] = system: HCT-116 (colon cancer cells characterized by wild-type p53); test: Anti-proliferation activity against HCT-116 cells; conditions: Homo sapiens
[8] = system: Hsp90 client proteins Her2, Raf and Akt in MCF-7 breast cancer cells; test: Hsp90 client protein degradation, Western blot in MCF-7 cells
Procedure: FIG. 17 is a western blot analysis of Hsp90 client protein degradation assays against MCF-7 breast cancer cells. The concentration of compound 46 (in μM) is denoted above each lane. Geldamycin and DMSO were used as positive and negative controls, respectively.
In order to provide additional evidence that the growth inhibitory activity manifested by the 2-indoleamide compound 46 resulted from Hsp90 inhibition, 46 was evaluated by its ability to induce degradation of Hsp90-dependent client proteins. […] Since non-Hsp90-dependent substrates such as actin remained unchanged, the inhibition of cell growth was directly correlated to the degradation of Hsp90-dependent client proteins.

[9] = Table 6, 72 hours, MTS/PMS, mean ± standard deviation
[10] = Table 6, 72 hours, MTS/PMS, mean ± standard deviation, read-out: IC50 SKBr3
[11] = Table 6, 72 hours, MTS/PMS, mean ± standard deviation, read-out: IC50 LnCaP
[12] = Table 4, biaryl analogues, n = 3
[13] = Table 4, biaryl analogues, n = 3, read-out: IC50 SkBr3
[14] = Table 5, heterocyclic analogues, n = 3
[15] = Table 5, heterocyclic analogues, n = 3, read-out: IC50 SkBr3
[16] = Table 5, heterocyclic analogues, n = 3, read-out: IC50 LNCaP

SMILES: CO[C@@H]1[C@@H](O)[C@@H](O)[C@H](Oc2ccc3cc(NC(=O)/C=C/c4ccccc4)c(=O)oc3c2C)OC1(C)C [compound 25, N-(7-((2R,3R,4S,5R)-3,4-Dihydroxy-5-methoxy-6,6-dimethyltetrahydro-2H-pyran-2-yloxy)-8-methyl-2-oxo-2H-chromen-3-yl)cinnamamide]
IC50 ([1]; Table 3, n = 3): 4 ± 0.3 µM | IC50 ([2]; Table 3, n = 3): 3.9 ± 0.05 µM | IC50 ([3]; Table 3, n = 3, read-out: IC50 SkBr3): 2.6 ± 0.6 µM | IC50 ([6]; Table 3, n = 3): 3 ± 1 µM | IC50 ([7]; Table 3, n = 3): 3.2 ± 0.5 µM | fold increase in inhibitory activity versus the saturated derivative (23) [4]: about 3 fold | IC50 ([5]; Table 3, n = 3, read-out: IC50 LNCaP): 4.5 ± 0.7 µM

SMILES: COc1ccccc1-c1cc(C(=O)Nc2cc3ccc(O[C@@H]4OC(C)(C)[C@H](OC)[C@@H](O)[C@H]4O)c(C)c3oc2=O)ccc1OC [compound 32, N-(7-((2R,3R,4S,5R)-3,4-Dihydroxy-5-methoxy-6,6-dimethyltetrahydro-2H-pyran-2-yloxy)-8-methyl-2-oxo-2H-chromen-3-yl)-2′,6-dimethoxybiphenyl-3-carboxamide]
IC50 [1, 12]: 15.6 ± 6.3 µM | IC50 [2, 12]: 52.3 ± 34.7 µM | IC50 [3, 13]: 7.1 ± 0.6 µM | IC50 [6, 12]: 3.8 ± 1.7 µM | IC50 [7, 12]: 5.2 ± 2.1 µM | fold improved inhibition compared to 28 [4]: about 2 fold | IC50 ([5]; Table 4, biaryl analogues, n = 3, read-out: IC50 LNCaP): 6 ± 1 µM

SMILES: COc1ccc(C(=O)Nc2cc3ccc(O[C@@H]4OC(C)(C)[C@H](OC)[C@@H](O)[C@H]4O)c(C)c3oc2=O)cc1-c1ccccc1O [compound 35, N-(7-((2R,3R,4S,5R)-3,4-Dihydroxy-5-methoxy-6,6-dimethyltetrahydro-2H-pyran-2-yloxy)-8-methyl-2-oxo-2H-chromen-3-yl)-2′-hydroxy-6-methoxybiphenyl-3-carboxamide]
IC50 [1, 12]: 1.5 ± 0.1 µM | IC50 [2, 12]: 16.6 ± 4.4 µM | IC50 [3, 13]: 1.5 ± 0.1 µM | IC50 [6, 12]: 1.4 ± 0.2 µM | IC50 [7, 12]: 4.7 ± 1.4 µM | fold improved inhibition compared to 28 [4]: about 8 fold

SMILES: CO[C@@H]1[C@@H](O)[C@@H](O)[C@H](Oc2ccc3cc(NC(=O)c4cc5ccccc5[nH]4)c(=O)oc3c2C)OC1(C)C [compound 46, N-(7-((2R,3R,4S,5R)-3,4-Dihydroxy-5-methoxy-6,6-dimethyltetrahydro-2H-pyran-2-yloxy)-8-methyl-2-oxo-2H-chromen-3-yl)-1H-indole-2-carboxamide]
IC50 [1, 14]: 0.57 ± 0.07 µM | IC50 [2, 14]: 22.3 ± 10.1 µM | IC50 [3, 15]: 0.37 ± 0.06 µM | fold increased activity compared to novobiocin ([3]; SkBr3 cells): greater than 500 fold | IC50 [6, 14]: 0.47 ± 0.34 µM | Hsp90 client proteins Her2, Raf and Akt [8]: degraded in a concentration-dependent manner | Hsp90 level [8]: induced | IC50 [7, 14]: 0.17 ± 0.01 µM | IC50 [5, 16]: 12.2 µM

SMILES: CO[C@@H]1[C@@H](O)[C@@H](O)[C@H](Oc2ccc3cc(NC(=O)c4c[nH]c5ccccc45)c(=O)oc3c2C)OC1(C)C [compound 47, N-(7-((2R,3R,4S,5R)-3,4-Dihydroxy-5-methoxy-6,6-dimethyltetrahydro-2H-pyran-2-yloxy)-8-methyl-2-oxo-2H-chromen-3-yl)-1H-indole-3-carboxamide]
IC50 [1, 14]: 5.3 ± 0.3 µM | IC50 [2, 14]: 4.8 ± 2.4 µM | IC50 [3, 15]: 12.2 ± 1.5 µM | IC50 [6, 14]: 1.8 ± 0.3 µM | IC50 [7, 14]: 3.5 ± 0.5 µM | times less effective than compound 46 [4]: 3-10 times | IC50 [5, 16]: 2.3 ± 0.1 µM

Now from value to compound, other results behind:

IC50 [1, 9]: 82.8 µM | IC50 [2, 9]: 11.3 ± 2 µM | IC50 [3, 10]: 55.7 ± 6.9 µM | IC50 [5, 11]: 2 ± 0.8 µM
SMILES: COc1cccc(-c2cc(C(=O)Nc3cc4c(OC)cc(O[C@@H]5OC(C)(C)[C@H](OC)[C@@H](O)[C@H]5O)c(C)c4oc3=O)ccc2OC)c1 [26d, N-(7-((2R,3R,4S,5R)-3,4-dihydroxy-5-methoxy-6,6-dimethyltetrahydro-2H-pyran-2-yloxy)-5-methoxy-8-methyl-2-oxo-2H-chromen-3-yl)-3′,6-dimethoxybiphenyl-3-carboxamide]
fold reduced activity versus the compound with a hydrogen at the 5-position [4]: 4 fold

IC50 [1, 9]: 9 ± 5.4 µM | IC50 [2, 9]: 2.3 ± 2.9 µM | IC50 [3, 10]: 13.9 ± 1.2 µM | IC50 [5, 11]: 1.1 ± 0.1 µM
SMILES: COc1cccc(-c2cc(C(=O)Nc3cc4ccc(O[C@@H]5OC(C)(C)[C@H](OC)[C@@H](O)[C@H]5O)c(OC)c4oc3=O)ccc2OC)c1 [26g, N-(7-((2S,3R,4S,5R)-3,4-dihydroxy-5-methoxy-6,6-dimethyltetrahydro-2H-pyran-2-yloxy)-8-methoxy-2-oxo-2H-chromen-3-yl)-3′,6-dimethoxybiphenyl-3-carboxamide]
fold increased activity versus the 8-methyl derivative ([2]; PC-3 cells): 10 fold | fold improved activity over its 8-methyl counterpart ([4]; breast cancer cells): 2 fold | fold increased activity over 8-ethyl 26h ([4]; breast cancer cells): 5 fold

IC50 [1, 9]: 6.1 ± 1.7 µM | IC50 [2, 9]: 11.8 ± 1.3 µM | IC50 [3, 10]: 9 ± 0.8 µM | IC50 [5, 11]: 12.9 ± 4.4 µM
SMILES: COc1cc(O[C@@H]2OC(C)(C)[C@H](OC)[C@@H](O)[C@H]2O)c(C)c2oc(=O)c(NC(=O)c3cc4ccccc4[nH]3)cc12 [26l, N-(7-((2R,3R,4S,5R)-3,4-dihydroxy-5-methoxy-6,6-dimethyltetrahydro-2H-pyran-2-yloxy)-5-methoxy-8-methyl-2-oxo-2H-chromen-3-yl)-1H-indole-2-carboxamide]
fold reduced activity versus the compound with a hydrogen at the 5-position [4]: 15 fold

IC50 [1, 9]: 13.2 ± 0.6 µM | IC50 [2, 9]: 73.3 ± 3.7 µM | IC50 [3, 10]: 38 ± 3 µM | IC50 [5, 11]: 67.6 ± 6.3 µM
SMILES: CO[C@@H]1[C@@H](O)[C@@H](O)[C@H](Oc2ccc3cc(NC(=O)c4cc5ccccc5[nH]4)c(=O)oc3c2Cc2ccccc2)OC1(C)C [26m, N-(8-benzyl-7-((2R,3R,4S,5R)-3,4-dihydroxy-5-methoxy-6,6-dimethyltetrahydro-2H-pyran-2-yloxy)-2-oxo-2H-chromen-3-yl)-1H-indole-2-carboxamide]
fold less active than the 8-methyl derivative ([1]; MCF-7 cells): 23 fold | fold less active than the 8-methyl analogue ([4]; PC-3 and LnCaP cells): about 4 fold
